# “Also recorded” adds a separate entry of the source.
# How the values were obtained:
# [1] = biological target: T1, R201C mutant lysosomal β-galactosidase (Homo sapiens, UniProt P16278, R201C); assay: Chaperoning activity in R201C patient fibroblasts; type: cell-based; settings: for chaperoning activity with R201C mutant β-galactosidase: R201C cells (juvenile GM1-gangliosidosis), Figure 7; for β-galactosidase activity at higher concentrations: concentrations higher than 10 µM; for β-galactosidase activity at more than 100 µM: concentrations of more than 100 µM; for influence on β-galactosidase activity: incubation of the cells up to 10 µM
# T1 construct: Cell lines from one GM1-Gangliosidosis-patient (R201C) and one WT; endogenous in cells; host or cells: human skin fibroblasts of a GM1-gangliosidosis patient (R201C)
# T1 sequence (P16278 29-677 R201C): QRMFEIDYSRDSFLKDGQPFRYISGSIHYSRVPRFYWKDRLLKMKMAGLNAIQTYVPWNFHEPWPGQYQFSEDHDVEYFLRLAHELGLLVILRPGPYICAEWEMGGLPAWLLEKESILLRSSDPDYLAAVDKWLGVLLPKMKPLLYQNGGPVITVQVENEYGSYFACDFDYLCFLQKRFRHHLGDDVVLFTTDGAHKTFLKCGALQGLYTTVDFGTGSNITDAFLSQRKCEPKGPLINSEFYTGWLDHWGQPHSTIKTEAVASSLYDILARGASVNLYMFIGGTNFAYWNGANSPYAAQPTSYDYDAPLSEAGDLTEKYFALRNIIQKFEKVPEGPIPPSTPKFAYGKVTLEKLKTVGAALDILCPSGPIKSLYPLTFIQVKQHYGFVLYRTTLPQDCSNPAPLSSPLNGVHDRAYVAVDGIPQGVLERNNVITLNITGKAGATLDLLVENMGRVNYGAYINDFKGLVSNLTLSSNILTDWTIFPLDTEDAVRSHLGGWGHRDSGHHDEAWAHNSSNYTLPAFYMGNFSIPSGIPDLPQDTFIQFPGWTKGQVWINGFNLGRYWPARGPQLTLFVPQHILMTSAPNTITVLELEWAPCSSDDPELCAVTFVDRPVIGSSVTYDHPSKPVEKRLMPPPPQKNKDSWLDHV
# Procedure: Human β-galactosidase and β-hexosaminidase activity measurements were performed in duplicate assays, unless otherwise stated. Fibroblast cells were harvested by trypsinization in 0.9% NaCl containing 0.01% Triton, homogenized by sonication (3 × 10 s, Sonifier Bandelin Sonopuls, Bandelin, Berlin, Germany) and centrifuged at 13,000 rpm for 2 min in a table top centrifuge (Biofuge Pico, Heraeus, Hanau, Germany). Protein amounts were determined according to the method of Lowry.
# For assessment of β-Gal activity, 20 µL of cell homogenate were mixed with 100 µL of 0.5 mM 4-methylumbelliferyl-β-D-galactopyranoside (Sigma-Aldrich, St. Louis, MO, USA), in 100 mM citrate buffer (pH 4.0) containing 100 mM NaCl and 0.02% NaN3. After incubation at 37 °C for 30 min, the reaction was stopped by adding 2.5 mL 400 mM glycine/NaOH (pH 10.4).
# Cell lines from one GM1-Gangliosidosis-patient (R201C) and one WT, were exposed to compounds 22, 31, and 37, for evaluation of their chaperone effects.
# Human skin fibroblasts were grown in minimal essential medium (MEM) with Earle’s Salts (Sigma Aldrich, St. Louis, MO, USA) containing 10% fetal bovine serum, 400 µM L-glutamine, and 50 µg/mL gentamycin at 37 °C and 5% CO2. All cells used in this study were between the third and nineteenth passages.
# Potential chaperones were dissolved in DMSO and diluted in 10 mM phosphate buffer (pH 7.0) containing 100 mM NaCl, 0.01% NaN3, and 0.01% Triton for the IC50-measurements and in MEM for the in-vivo tests. The total DMSO concentration in the media was less than 1% and had no effect on β-Gal activity or cell viability.
# Fibroblasts were grown to semi-confluency in 6-well plates. Particular chaperone was added to the culture medium at following concentrations: 100–0.02 µmol. Cells were incubated for four additional days at 37 °C. Cells were harvested by scraping and prepared for β-galactosidase and β-hexosaminidase assays as described above.
# [2] = biological target: T2, Fabrazyme = commercial recombinant lysosomal α-galactosidase (GH27) (Homo sapiens, UniProt P06280); assay: Ki determination, Fabrazyme (acid α-galactosidase); type: biochemical; settings: 37 °C, pH 5.5, substrate 2,4-DNP α-Gal
# T2 construct: purchased
# T2 sequence (P06280 32-429): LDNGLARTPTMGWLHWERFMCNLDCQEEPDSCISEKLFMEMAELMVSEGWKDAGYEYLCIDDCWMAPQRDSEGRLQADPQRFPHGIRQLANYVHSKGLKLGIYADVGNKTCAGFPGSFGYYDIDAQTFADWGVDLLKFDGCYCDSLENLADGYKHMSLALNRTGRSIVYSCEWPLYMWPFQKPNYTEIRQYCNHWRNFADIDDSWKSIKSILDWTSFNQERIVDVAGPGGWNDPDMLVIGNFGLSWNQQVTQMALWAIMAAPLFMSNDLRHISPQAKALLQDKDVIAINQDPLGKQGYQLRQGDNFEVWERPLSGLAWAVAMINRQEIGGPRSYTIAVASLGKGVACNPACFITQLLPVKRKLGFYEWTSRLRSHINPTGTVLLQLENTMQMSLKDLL
# Procedure: Kinetic studies were performed at 37 °C in an appropriate buffer (specific conditions depicted below). In a typical assay, the enzyme was incubated with different inhibitor concentrations for up to 5 min before initiating the reaction by the addition of substrate. The initial reaction rate was measured by monitoring the increase in absorbance at 400 nm for up to ten minutes using a Cary4000 (Varian, Palo Alto, CA, USA). Ki determinations were performed using at least two different substrate concentrations. For each inhibitor, a range of four to six inhibitor concentrations bracketing the ultimately determined Ki value was used for each substrate concentration. Dixon plots (1/v vs. [I]) were constructed to validate the use of competitive inhibition model. The data were then fit using non-linear regression analysis with Grafit 7.0 [Erithacus Software, UK].
# n.i. stands for no inhibition or weak inhibition with an estimated Ki value higher than 1 mM.
# Fabrazyme (Acid α-galactosidase): 20 mM sodium citrate, 50 mM sodium phosphate, 1.0 mM tetrasodium EDTA, 0.25% v/v Triton X-100® and 0.25% w/v taurocholic acid buffer (pH 5.5). Substrate: 2,4-DNP α-Gal, Km = 0.65 mM.
Structure (SMILES),chaperoning activity with R201C mutant β-galactosidase [1],Ki [2],β-galactosidase activity at higher concentrations [1],β-galactosidase activity at more than 100 µM [1],influence on β-galactosidase activity [1]
CN(C)c1cccc2c(S(=O)(=O)NCCCCCC[C@H]3NC[C@@H](O)[C@@H](O)[C@H]3CO)cccc12 [Compound 22],reacted very positively; also recorded: encouraging dose-dependent chaperoning profiles,> 1000 µM,,,
"CCCCCCCCNC1C=C(CO)C(O)C(O)C1O (stereo not drawn) [Compound 1, N-octyl-epi-valienamine]",,> 1000 µM,,,
"CN(C)c1cccc2c(S(=O)(=O)NCCCCCCN[C@H]3[C@H](F)[C@@H](O)[C@@H](O)[C@H]3CO)cccc12 [Compound 37, (1S,2S,3S,4R,5R)-4-(6′-Dansylaminohexyl)amino-3-fluoro-5-hydroxymethylcyclopentane-1,2-diol]",only trailed by deoxyfluoro analog 37,> 1000 µM,decreased enzyme activity,dramatic loss,no notable influence
"CN(C)c1cccc2c(S(=O)(=O)NCCCCCCN[C@H]3C[C@@H](O)[C@@H](O)[C@H]3CO)cccc12 [Compound 31, (1R,2S,3R,4S)-3-Hydroxymethyl-4-(6′-dansylaminohexylamino)cyclopentane-1,2-diol]",distinctly reduced chaperoning activity,> 1000 µM,decreased enzyme activity,dramatic loss,no notable influence
CN(C)c1cccc2c(S(=O)(=O)NCCCCC3NCC(O)C(O)C3CO)cccc12 (stereo not drawn) [Compound 11],reacted very positively,,,,
CN(C)c1cccc2c(S(=O)(=O)NCCCCCC[C@@H]3NC[C@@H](O)[C@@H](O)[C@H]3CO)cccc12 [Compound 14],reacted very positively,,,,
CCCCCCCCN[C@H]1[C@H](O)[C@@H](O)[C@@H](O)[C@H]1CO [Compound 16],reacted very positively,> 1000 µM,,,
CN(C)c1cccc2c(S(=O)(=O)NCCCCCCN[C@H]3[C@H](O)[C@@H](O)[C@@H](O)[C@H]3CO)cccc12 [Compound 17],reacted very positively,,,,
